# From US8546409B2, “Methods of treatment for solid tumors” (priority 2009, dated 2013)
# Like-named read-outs stand apart in the source and are kept apart here.
# Columns and labels:
# mTOR = mTOR (Homo sapiens, UniProt P42345); assay: Inhibition of kinase activity of other lipid kinases, mTOR; type: biochemical; conditions: read-out: IC-50 for inhibition of kinase activity, mTOR
# p110δ = biological target: T1, p110δ (Homo sapiens, UniProt O00329); assay: Cell-based p110δ assay: anti-FcεR1 stimulated CD63 movement to surface of basophils
# T1 construct: endogenous in cells
# Procedure: (§1) The p110α assay used SW3T3 cells stimulated by PDGF, and p110 kinase activity was measured by Akt phosphorylation. The p110β activity was measured by lysophosphatidic acid stimulation of Akt phosphorylation in mouse embryonic fibroblasts. The activity of p110δ was measured by anti-FcεR1 antibody cross linking stimulation of CD63 movement to the surface of basophils. Finally, the activity of p110γ was measured by fMLP stimulation of CD63 antigen movement to the cell surface of basophils.
# p110γ = biological target: T2, p110γ (Homo sapiens, UniProt P48736); assay: Cell-based p110γ assay: fMLP stimulated CD63 movement to surface of basophils
# T2 construct: endogenous in cells; host or cells: basophils
# Procedure: as §1
# [1] = test system: Akt phosphorylation in T47D (breast cancer); assay: Phosphorylation of Akt in T47D cells (FIG. 4); type: cell-based; conditions: 10 micromolar
# Excerpt: This distinguishes compound I from other known PI3K inhibitors in development for treatment of solid tumors, which are believed to act primarily at the p110α isoform or on p110α plus other isoforms, or even on all PI3Ks plus mTOR.
# T47D = assay: Tumor cell culture growth, optical density at 459 nm (FIG. 7), T47D; type: cell-based; conditions: 5-10 micromolar
# OVCAR-3 = assay: Tumor cell culture growth, optical density at 459 nm (FIG. 7), OVCAR-3; type: cell-based; conditions: OVCAR-3, 5-10 micromolar
# [2] = mouse
# Excerpt: Bioavailability of Compound I upon oral administration is especially good; even compared to other quinazolinones of similar structures. For example, FIG. 6 illustrates that Compound I produces higher plasma concentrations of drug than another quinazolinone compound having a similar structure (Compound B). […] The degree of difference in oral bioavailability between Compound I and Compound B observed in this test is surprising.
# Treatments of the invention typically involve administration of compound Ito a subject in need of treatment on a daily basis for at least one week or more than one week, often for 2-4 weeks, and sometimes for 1-3 months or more. The half-life of Compound I in vivo in mice and rats is several hours—see FIG. 6. It is thus sometimes desirable to administer compound I in multiple doses each day, in order to maintain efficacious plasma levels over a prolonged period of time. Administration may be done in two doses per day, or three doses per day, or in some embodiments, four doses per day or more, particularly when Compound I is administered orally. Alternatively, Compound I can be administered intravenously at a rate that maintains an efficacious plasma level for a prolonged period of time. Suitably, it would be administered at a rate to achieve a plasma level of at least about 1 micromolar, or at least 3 micromolar, or at least 5 micromolar.
# in vivo = assay: in vivo; set-up: species or system mice; conditions: female, nu/nu, mouse
# Procedure: At this range, which was the effective dosage used in the tests shown in FIGS. 8 and 9, plasma concentration of compound I reaches about 5000-7000 ng/mL.
# Compound I was administered in a single dose at a rate of 30 mg/kg to each test subject, and plasma levels were monitored for 12 hours thereafter. Plasma levels of Compound I peaked around 2-4 hours after administration in each case, and had essentially returned to zero 8 hours after the single dose at this rate, as shown in FIG. 10. The peak plasma concentration for these subjects, after a single injection at the dose shown to be effective for inhibiting tumor growth of each xenograft (see the preceding examples, and FIGS. 8-9) were generally below about 7000 ng/mL.
# HOP-62 = assay: NCI panel growth inhibition, HOP-62; type: cell-based; conditions: Homo sapiens, Non-Small Cell Lung Cancer
# Excerpt: (§2) Compound I has also been tested in a battery of tumor cell assays known as the NCI panel.
# HCT-116 = assay: NCI panel growth inhibition, HCT-116; type: cell-based; conditions: Homo sapiens, Colon Cancer
# Excerpt: as §2
# HT29 = assay: NCI panel growth inhibition, HT29; type: cell-based; conditions: Homo sapiens, HT-29, Colon Cancer
# Excerpt: as §2
# UACC-257 = assay: NCI panel growth inhibition, UACC-257; type: cell-based; conditions: Homo sapiens, Melanoma
# Excerpt: as §2
# UACC-62 = assay: NCI panel growth inhibition, UACC-62; type: cell-based; conditions: Homo sapiens, Melanoma
# Excerpt: as §2
# OVCAR-4 = assay: NCI panel growth inhibition, OVCAR-4; type: cell-based; conditions: Homo sapiens, Ovarian
# Excerpt: as §2
# OVCAR-8 = assay: NCI panel growth inhibition, OVCAR-8; type: cell-based; conditions: Homo sapiens, Ovarian
# Excerpt: as §2
# A498 = assay: NCI panel growth inhibition, A498; type: cell-based; conditions: Homo sapiens, Renal
# Excerpt: as §2
# RXF 393 = assay: NCI panel growth inhibition, RXF 393; type: cell-based; conditions: Homo sapiens, Renal
# Excerpt: as §2
# UO-31 = assay: NCI panel growth inhibition, UO-31; type: cell-based; conditions: Homo sapiens, Renal
# Excerpt: as §2
# ADR-RES = assay: NCI panel growth inhibition, ADR-RES; type: cell-based; conditions: Breast Cancer
# Excerpt: as §2
# MDA-MB-231 = assay: NCI panel growth inhibition, MDA-MB-231; type: cell-based; conditions: Homo sapiens, Breast Cancer
# Excerpt: as §2
# MDA-MB-435 = assay: NCI panel growth inhibition, MDA-MB-435; type: cell-based; conditions: Homo sapiens, Breast Cancer
# Excerpt: as §2
# T-47D = assay: NCI panel growth inhibition, T-47D; type: cell-based; conditions: Homo sapiens, T47D, Breast Cancer
# Excerpt: as §2
# T1 sequence (O00329 whole entry, species assumed): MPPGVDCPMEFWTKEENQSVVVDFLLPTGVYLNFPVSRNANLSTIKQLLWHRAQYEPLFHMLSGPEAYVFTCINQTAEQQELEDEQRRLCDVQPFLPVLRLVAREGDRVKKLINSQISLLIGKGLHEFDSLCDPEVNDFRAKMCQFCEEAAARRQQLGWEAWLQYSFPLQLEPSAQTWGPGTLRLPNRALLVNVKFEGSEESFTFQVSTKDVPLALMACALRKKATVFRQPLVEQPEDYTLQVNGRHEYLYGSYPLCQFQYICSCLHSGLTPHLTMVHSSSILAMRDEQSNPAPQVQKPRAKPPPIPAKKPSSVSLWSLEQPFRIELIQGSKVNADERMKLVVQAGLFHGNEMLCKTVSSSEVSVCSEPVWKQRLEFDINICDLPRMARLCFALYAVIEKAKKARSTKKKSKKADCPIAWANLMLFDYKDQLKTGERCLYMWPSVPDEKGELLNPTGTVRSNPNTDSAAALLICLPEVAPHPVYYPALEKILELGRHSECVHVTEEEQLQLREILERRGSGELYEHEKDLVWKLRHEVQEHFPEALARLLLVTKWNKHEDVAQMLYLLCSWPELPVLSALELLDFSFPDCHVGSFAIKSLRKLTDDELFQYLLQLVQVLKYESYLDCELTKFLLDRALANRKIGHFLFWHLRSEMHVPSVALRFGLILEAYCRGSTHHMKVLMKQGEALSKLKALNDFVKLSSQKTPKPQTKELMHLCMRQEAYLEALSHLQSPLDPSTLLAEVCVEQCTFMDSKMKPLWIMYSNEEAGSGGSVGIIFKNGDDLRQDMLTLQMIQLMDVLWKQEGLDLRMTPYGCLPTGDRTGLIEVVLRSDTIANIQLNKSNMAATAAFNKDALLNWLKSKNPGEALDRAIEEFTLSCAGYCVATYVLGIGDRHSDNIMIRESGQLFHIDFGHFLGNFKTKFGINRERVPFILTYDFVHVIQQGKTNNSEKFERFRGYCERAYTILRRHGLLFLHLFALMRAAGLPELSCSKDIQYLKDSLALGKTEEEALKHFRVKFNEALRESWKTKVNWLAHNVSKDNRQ
# T1 sequence (P27986 whole entry partner, species assumed): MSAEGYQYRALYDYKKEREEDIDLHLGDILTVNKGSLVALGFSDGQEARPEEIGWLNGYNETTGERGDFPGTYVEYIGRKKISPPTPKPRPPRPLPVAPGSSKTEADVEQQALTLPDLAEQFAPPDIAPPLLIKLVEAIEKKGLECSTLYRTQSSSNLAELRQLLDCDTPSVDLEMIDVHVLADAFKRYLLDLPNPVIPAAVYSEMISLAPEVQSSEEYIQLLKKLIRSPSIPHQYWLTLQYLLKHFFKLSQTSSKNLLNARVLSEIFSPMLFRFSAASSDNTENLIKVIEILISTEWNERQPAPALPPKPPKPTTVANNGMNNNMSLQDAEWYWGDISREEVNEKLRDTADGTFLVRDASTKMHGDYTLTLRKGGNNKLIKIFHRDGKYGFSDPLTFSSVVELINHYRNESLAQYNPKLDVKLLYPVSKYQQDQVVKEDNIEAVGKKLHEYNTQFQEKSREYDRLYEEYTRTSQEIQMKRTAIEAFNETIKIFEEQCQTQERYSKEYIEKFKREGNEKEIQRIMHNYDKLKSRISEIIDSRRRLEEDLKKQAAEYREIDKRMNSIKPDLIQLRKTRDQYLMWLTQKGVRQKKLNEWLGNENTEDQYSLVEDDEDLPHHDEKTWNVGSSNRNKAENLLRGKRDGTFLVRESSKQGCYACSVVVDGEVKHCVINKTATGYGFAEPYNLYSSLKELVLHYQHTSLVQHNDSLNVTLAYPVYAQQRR
# T2 sequence (P48736 whole entry, species assumed): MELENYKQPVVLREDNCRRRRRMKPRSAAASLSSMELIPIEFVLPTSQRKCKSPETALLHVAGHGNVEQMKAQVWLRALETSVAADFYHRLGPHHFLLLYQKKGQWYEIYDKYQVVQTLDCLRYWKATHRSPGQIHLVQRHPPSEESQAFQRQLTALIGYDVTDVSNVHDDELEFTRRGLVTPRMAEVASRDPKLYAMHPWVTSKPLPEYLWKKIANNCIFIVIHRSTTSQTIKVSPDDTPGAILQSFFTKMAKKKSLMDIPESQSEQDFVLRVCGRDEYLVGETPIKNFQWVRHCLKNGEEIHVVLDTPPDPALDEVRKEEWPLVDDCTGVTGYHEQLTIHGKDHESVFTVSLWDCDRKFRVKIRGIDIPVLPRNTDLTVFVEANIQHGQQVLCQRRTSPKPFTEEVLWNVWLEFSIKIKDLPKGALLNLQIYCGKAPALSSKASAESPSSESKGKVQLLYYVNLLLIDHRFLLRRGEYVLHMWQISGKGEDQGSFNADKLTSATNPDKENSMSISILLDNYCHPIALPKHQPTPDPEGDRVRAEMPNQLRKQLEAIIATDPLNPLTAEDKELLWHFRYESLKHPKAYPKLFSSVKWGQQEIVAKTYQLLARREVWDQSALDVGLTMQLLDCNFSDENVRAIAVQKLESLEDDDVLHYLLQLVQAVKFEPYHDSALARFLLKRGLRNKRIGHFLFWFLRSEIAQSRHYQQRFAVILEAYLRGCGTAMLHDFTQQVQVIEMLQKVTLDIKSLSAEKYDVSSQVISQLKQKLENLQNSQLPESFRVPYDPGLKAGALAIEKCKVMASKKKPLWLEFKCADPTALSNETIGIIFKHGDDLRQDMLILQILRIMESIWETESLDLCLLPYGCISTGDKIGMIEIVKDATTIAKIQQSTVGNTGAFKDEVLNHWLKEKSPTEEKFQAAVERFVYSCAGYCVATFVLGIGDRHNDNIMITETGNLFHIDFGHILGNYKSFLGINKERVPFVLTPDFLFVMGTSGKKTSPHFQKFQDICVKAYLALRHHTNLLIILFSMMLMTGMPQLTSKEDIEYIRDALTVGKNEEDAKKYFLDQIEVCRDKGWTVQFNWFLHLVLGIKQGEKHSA
smiles,measurement,setting,value
C[C@H](Nc1ncnc2[nH]cnc12)c1nc2ccc(F)cc2c(=O)n1-c1ccccc1 [Compound I],IC50,mTOR,100 µM
same,EC50,"p110δ; FB, read-out: Cell-based assay EC50 p110δ, FB",0.0084 µM
same,EC50,"p110δ; WB, read-out: Cell-based assay EC50 p110δ, WB",0.019 µM
same,EC50,"p110γ; FB, read-out: Cell-based assay EC50 p110γ, FB",3 µM
same,EC50,"p110γ; WB, read-out: Cell-based assay EC50 p110γ, WB",5.4 µM
same,Phosphorylation of Akt,[1],inhibits phosphorylation of Akt
same,Inhibition of tumor cell culture growth,T47D,strong inhibition of growth
same,Inhibition of tumor cell culture growth,OVCAR-3,strong inhibition of growth
same,Half-life in vivo,[2],several hours
same,Peak plasma level compared to Compound B,"[2]; in vivo, po",higher peak plasma level
same,Plasma level maintained for several hours,"[2]; in vivo, po, 20 mg/kg",about 500 ng/mL
same,AUC,in vivo,"18,000 ng-h/mL"
same,Time after which plasma levels had essentially returned to zero,in vivo; 30 mg/kg,8 h
same,Time of peak plasma level after administration,in vivo; 30 mg/kg,2 to 4 h
same,AUC,in vivo; AUC,15 µg·h/mL
same,GI50,HOP-62,14.8 µM
same,GI50,HCT-116,37.9 µM
same,GI50,HT29,16.5 µM
same,GI50,UACC-257,17.4 µM
same,GI50,UACC-62,1.43 µM
same,GI50,OVCAR-4,100 µM
same,GI50,OVCAR-8,44.6 µM
same,GI50,A498,0.615 µM
same,GI50,RXF 393,1.14 µM
same,GI50,UO-31,2.01 µM
same,GI50,ADR-RES,58.6 µM
same,GI50,MDA-MB-231,100 µM
same,GI50,MDA-MB-435,43.1 µM
same,GI50,T-47D,0.571 µM
